From patent US20260265195A1, “SARM1 MODULATORS, PREPARATIONS, AND USES THEREOF” (SIRONAX LTD, priority 2022, published 2026)

biological target: T1, SARM1 (50-724) (Homo sapiens, UniProt Q6SZW1); test: SARM1 (50-724) enzymatic assay (NMN-activated NAD+ hydrolysis, LC-MS/MS readout); type: biochemical; details: purified SARM1 (50-724) 2 nM, 200 μM NMN activator, 100 μM NAD+ substrate, 1 h at room temperature, read-out: IC50 (SARM1 inhibitory activity)
T1 construct: Purified SARM1 (50-724) with a final concentration of 2 nM
T1 sequence (Q6SZW1 50-724): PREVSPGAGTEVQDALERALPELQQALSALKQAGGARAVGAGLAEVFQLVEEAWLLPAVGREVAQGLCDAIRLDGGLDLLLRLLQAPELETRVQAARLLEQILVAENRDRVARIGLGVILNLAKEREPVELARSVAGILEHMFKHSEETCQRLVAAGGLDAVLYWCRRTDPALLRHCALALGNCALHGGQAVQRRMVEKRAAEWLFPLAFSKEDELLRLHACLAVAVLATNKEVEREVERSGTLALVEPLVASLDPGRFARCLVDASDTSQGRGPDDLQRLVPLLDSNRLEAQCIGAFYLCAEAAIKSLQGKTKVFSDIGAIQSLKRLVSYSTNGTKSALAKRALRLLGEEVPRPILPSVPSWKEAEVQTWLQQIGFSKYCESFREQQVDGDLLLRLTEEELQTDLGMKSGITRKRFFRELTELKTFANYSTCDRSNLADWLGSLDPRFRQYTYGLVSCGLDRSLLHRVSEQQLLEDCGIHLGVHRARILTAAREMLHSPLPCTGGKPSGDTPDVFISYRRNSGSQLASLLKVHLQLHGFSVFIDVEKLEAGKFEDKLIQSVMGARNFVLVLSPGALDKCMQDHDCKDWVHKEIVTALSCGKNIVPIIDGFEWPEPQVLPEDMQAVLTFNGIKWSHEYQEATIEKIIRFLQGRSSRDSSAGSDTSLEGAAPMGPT
Procedure: Example II. SARM1 (50-724) Enzymatic Assay
An enzymatic assay was performed in a 384-well plate using Dulbecco's phosphate-buffered saline (PBS) as the reaction buffer. Purified SARM1 (50-724) with a final concentration of 2 nM was pre-incubated with a test compound at 1% DMSO final assay concentration for 15 min at room temperature. The reaction was initiated by adding a mixture of 200 μM nicotinamide mononucleotide (NMN) as activator and 100 μM NAD^+ as substrate. After 1 h of incubation at room temperature, the reaction was terminated with 10 times volume of 70% acetonitrile, then centrifuged at 3800 rpm for 10 min. The samples were analyzed using LC-MS/MS after diluted to a proper concentration by 10 mM ammonium acetate (pH 9.75).
ND means “not determined.”

Compound	IC50 [nM]
Cc1ccc2[nH]c(C(=O)N(C)C3CCN(C(=O)OC(C)(C)C)CC3)c(CNc3ccccn3)c2c1 [Compound 85, tert-butyl 4-(N,5-dimethyl-3-((pyridin-2-ylamino)methyl)-1H-indole-2-carboxamido)piperidine-1-carboxylate]	≥ 1000
Cc1nc(C(=O)N(C)C2CCCC2)[nH]c1C [Compound 59, N-cyclopentyl-N,4,5-trimethyl-1H-imidazole-2-carboxamide]	≥ 1000
Cc1ccc2[nH]c(C(=O)N(C)c3cccc(C#N)c3)c(CO)c2c1 [Compound 8, N-(3-cyanophenyl)-3-(hydroxymethyl)-N,5-dimethyl-1//-indole-2-carboxamide]	≥ 1000
Cc1ccc2c(CO)c(C(=O)N(C)C3CCCC3)n(CC(N)=O)c2c1 [Compound 23, 1-(2-amino-2-oxoethyl)-N-cyclopentyl-3-(hydroxymethyl)-N,6-dimethyl-1H-indole-2-carboxamide]	≥ 1000
Cc1ccc2[nH]c(C(=O)N(CC3COC3)C3CCCC3)nc2c1 [Compound 65, N-cyclopentyl-5-methyl-N-(oxetan-3-ylmethyl)-1H-benzo[d]imidazole-2-carboxamide]	≥ 1000
Cc1ccc2[nH]c(C(=O)N(C)C3CCCC(C)C3C)c(CO)c2c1 (stereo not drawn) [Compound 35, N-(2,3-dimethylcyclohexyl)-3-(hydroxymethyl)-N,5-dimethyl-1H-indole-2-carboxamide]	≥ 1000
Cc1cc(-c2ccc3[nH]c(C(=O)N(CCO)c4cccc(Cl)c4Cl)nc3c2)sn1 [Compound 144]	101 to 500
CC(C)c1ccc2[nH]c(C(=O)N(C)C3CCCC3)c(CO)c2c1 [Compound 27, N-cyclopenty1-3-(hydroxymethyl)-5-isopropyl-N-methyl-1H-indole-2-carboxamide]	101 to 500
Cc1ccc2[nH]c(C(=O)N(C)C3CCCC3)c(C#N)c2c1 [Compound 70, 3-cyano-N-cyclopentyl-N,5-dimethyl-1H-indole-2-carboxamide]	101 to 500
Cc1ccc2[nH]c(C(=O)N(C)C3CCCC3)c(CNc3cc(C)[nH]n3)c2c1 [Compound 83, N-cyclopentyl-N,5-dimethyl-3-(((5-methyl-1H-pyrazol-3-yl)amino)methyl)-1H-indole-2-carboxamide]	101 to 500
O=C(c1nc2cc(C(F)(F)F)ccc2[nH]1)N(c1cccc(Cl)c1Cl)C1CNC1 [Compound 117, N-(azetidin-3-yl)-N-(2,3-dichlorophenyl)-5-(trifluoromethyl)-1H-benzo[d]imidazole-2-carboxamide]	≥ 1000
Cc1ccc2[nH]c(C(=O)N(C)C3CCOCC3)c(CNc3ccccn3)c2c1 [Compound 90, N,5-dimethyl-3-((pyridin-2-ylamino)methyl)-N-(tetrahydro-2H-pyran-4-yl)-1H-indole-2-carboxamide]	≥ 1000
Cc1ccc2[nH]c(C(=O)N(C)C3CCCC3)c(CN)c2c1 [Compound 68, 3-(aminomethyl)-N-cyclopentyl-N,5-dimethyl-1H-indole-2-carboxamide]	≥ 1000
O=C(c1nc2cc(C(F)(F)F)ccc2[nH]1)N(CC1CNC1)c1cccc(Cl)c1Cl [Compound 114, N-(azetidin-3-ylmethyl)-N-(2,3-dichlorophenyl)-5-(trifluoromethyl)-1H-benzo[d]imidazole-2-carboxamide]	101 to 500

Further lines, results first:

IC50 [nM]	Compound
≤ 100	Cc1ccc2[nH]c(C(=O)N(CCO)c3cccc(Cl)c3Cl)nc2c1 [Compound 98, N-(2,3-dichlorophenyl)-N-(2-hydroxyethyl)-5-methyl-1H-benzo[d]imidazole-2-carboxamide]
≤ 100	O=C(c1nc2cc(C(F)(F)F)ccc2[nH]1)N(CC1(CO)COC1)c1cccc(Cl)c1Cl [Compound 174, N-(2,3-dichlorophenyl)-N-((3-(hydroxymethyl)oxetan-3-yl)methyl)-5-(trifluoromethyl)-1H-benzo[d]imidazole-2-carboxamido]
≤ 100	O=C(CN(C(=O)c1nc2cc(C(F)(F)F)ccc2[nH]1)c1cccc(Cl)c1Cl)N1CCC1 [Compound 202, N-(2-(azetidin-1-yl)-2-oxoethyl)-N-(2,3-dichlorophenyl)-5-(trifluoromethyl)-1H-benzo[d]imidazole-2-carboxamide]
101 to 500	CN(C(=O)c1nc2cc(Br)ccc2[nH]1)C1CCCC1 [Compound 104, 5-bromo-N-cyclopentyl-N-methyl-1H-benzo[d]imidazole-2-carboxamide]
≤ 100	O=C(c1nc2cc(Cl)cc(F)c2[nH]1)N(CC(F)(F)CO)c1cccc(F)c1Cl [Compound 232, 5-chloro-N-(2-chloro-3-fluorophenyl)-N-(2,2-difluoro-3-hydroxypropyl)-7-fluoro-1H-benzo[d]imidazole-2-carboxamide]
101 to 500	O=C(c1nc2cc(-c3ccn[nH]3)ccc2[nH]1)N(CC1COC1)c1cccc(Cl)c1Cl [Compound 119]
101 to 500	O=C(c1nc2cc(C(F)(F)F)ccc2[nH]1)N(CCC1CNC1)c1cccc(Cl)c1Cl [Compound 134, N-(2-(azetidin-3-yl)ethyl)-N-(2,3-dichlorophenyl)-5-(trifluoromethyl)-1H-benzo[d]imidazole-2-carboxamide]
≤ 100	O=C(c1nc2cc(C(F)(F)F)cc(F)c2[nH]1)N(c1cccc(F)c1Cl)C1CCS(=O)(=O)C1 (racemic) [Compound 192]
≤ 100	O=C(c1nc2cc(C(F)(F)F)ccc2[nH]1)N(CC1CC(O)C1)c1cccc(F)c1Cl (stereo not drawn) [Compound 194, N-(2-chloro-3-fluorophenyl)-N-((3-hydroxycyclobutyl)methyl)-5-(trifluoromethyl)-1H-benzo[d]imidazole-2-carboxamide]
≤ 100	CS(=O)(=O)CCCN(C(=O)c1nc2cc(C(F)(F)F)ccc2[nH]1)c1cccc(Cl)c1Cl [Compound 129, N-(2,3-dichlorophenyl)-N-(3-(methylsulfonyl)propyl)-5-(trifluoromethyl)-1H-benzo[d]imidazole-2-carboxamide]
≤ 100	CC1(c2ccc3[nH]c(C(=O)N(CCO)c4cccc(Cl)c4Cl)nc3c2)COC1 [Compound 195]
≤ 100	Cc1c(Cl)cncc1N(CC(F)(F)CO)C(=O)c1nc2cc(C(F)(F)F)ccc2[nH]1 [Compound 133, N-(5-chloro-4-methylpyridin-3-yl)-N-(2,2-difluoro-3-hydroxypropyl)-5-(trifluoromethyl)-1H-benzo[d]imidazole-2-carboxamide]
≤ 100	CN1CCC(N(C(=O)c2nc3cc(C(F)(F)F)ccc3[nH]2)c2cccc(F)c2Cl)C1=O (racemic) [Compound 240, N-(2-chloro-3-fluorophenyl)-N-(1-methyl-2-oxopyrrolidin-3-yl)-5-(trifluoromethyl)-1H-benzo[d]imidazole-2-carboxamide]
≤ 100	O=C(c1nc2cc(C(F)(F)F)ccc2[nH]1)N(CC(F)(F)CO)c1cccc(Cl)c1Cl [Compound 112, N-(2,3-dichlorophenyl)-N-(2,2-difluoro-3-hydroxypropyl)-5-(trifluoromethyl)-1H-benzo[d]imidazole-2-carboxamide]
≤ 100	O=C(c1nc2cc(Cl)cc(F)c2[nH]1)N(c1cccc(F)c1Cl)C1CCS(=O)(=O)C1 (racemic) [Compound 191]
≤ 100	CNC(=O)CN(C(=O)c1nc2cc(C(F)(F)F)ccc2[nH]1)c1cccc(Cl)c1Cl [Compound 182, N-(2,3-dichlorophenyl)-N-(2-(methylamino)-2-oxoethyl)-5-(trifluoromethyl)-1H-benzo[d]imidazole-2-carboxamide]
